Values joined by “and” are separate entries in the source; they are usually repeats but may differ in a detail not shown here. Equal entries are not always repeated. Where two headings read alike, the source gives them in different places.
Tests used:
[1] = Comparison of toxicity of polyoxometalate compounds in mice (mortality, haematology); format: in vivo; settings: BID × 6, 60 mkd i.p.; for Mortality: dead/total
Text: Comparison of Toxicity of Polyoxometalate Compounds Mice.
In vivo antiviral experiments. […] Treatment was continued daily for 6 or 10 days.

human PBM cells = test: Cytotoxicity assay on uninfected PHA stimulated human PBMC (trypan blue); format: cell-based
Protocol: Cells. […] PBS), and pelleted at 300×g for 10 minutes. […] Cytotoxicity assay. The drugs were evaluated for their potential toxic effects on uninfected PHA stimulated human PBMC. Flasks were seeded so that the final cell concentration was 2×10^5 cells/ml. The cells were cultured with and without drug for 6 days, at which time aliquots were counted for cell viability, as assessed by the trypan blue dye-exclusion method using a hemacytometer. The median inhibitory concentration (IC50) was calculated using the median effect method (Chou et al, Elsevier-Biosoft, Elsevier Science Publishers, Cambridge, U.K., 1985; Chou et al, Adv. Enz. Regul. 22, 27-55, 1984). Median-effect method. Dose-effect relationships were analyzed by the median-effect equation (Chou et al, Adv. Enz. Regul. 22, 27-55, 1984). The slope (m) and median effective and inhibitory concentration (EC50 and IC50) values were obtained by using a computer program developed by Chou and Chou (Chou et al, Elsevier-Biosoft, Elsevier Science Publishers, Cambridge, U.K., 1985).

HSV-1 = test: Plaque reduction assay for herpes simplex viruses in Vero cells; format: cell-based, herpes simplex virus type 1; settings: Table 2; read-out: EC-50 HSV-1
Protocol: (§1) Cell culture assays for heroes simplex viruses. Mycoplasma-free Vero cells, obtained from Flow Laboratory (McLean, Va.), were used for the plaque assays. The methodologies for the plaque reduction and cytotoxicity assays have been previously described (Schinazi et al, Antimicrob. Agents Chemother. 22, 499-507, 1982). Median-effect method. Dose-effect relationships were analyzed by the median-effect equation (Chou et al, Adv. Enz. Regul. 22, 27-55, 1984). The slope (m) and median effective and inhibitory concentration (EC50 and IC50) values were obtained by using a computer program developed by Chou and Chou (Chou et al, Elsevier-Biosoft, Elsevier Science Publishers, Cambridge, U.K., 1985).

Vero cells = test: Cytotoxicity assay in Vero cells; format: cell-based; settings: Table 2; >100 μM = Nontoxic; read-out: IC50 Toxicity Vero Cells
Text: Cell culture assays for heroes simplex viruses. Mycoplasma-free Vero cells, obtained from Flow Laboratory (McLean, Va.), were used for the plaque assays. The methodologies for the plaque reduction and cytotoxicity assays have been previously described (Schinazi et al, Antimicrob. Agents Chemother. 22, 499-507, 1982).

[2] = target: T1, HIV-1 reverse transcriptase (Human immunodeficiency virus type 1 group M subtype B, UniProt P04585); test: Evaluation of compounds on purified retroviral RT (cell-free, virion-derived); format: biochemical; settings: Table 2; read-out: EC-50 Cell-Free RT (virion-derived)
T1 construct: HIV-1 RT was isolated from detergent disrupted virions; made in house; host or cells: virions pelleted from culture fluid of HIV-1-infected PHA-stimulated human PBMC; DEAE-cellulose and phosphocellulose chromatography
Protocol: Evaluation of compounds on purified retroviral RT. HIV-1 RT was isolated from detergent disrupted virions obtained from the cell-free supernatant of infected PHA-stimulated PBMC. The enzyme was purified by passing the extract through ion-exchange chromatography columns, as described previously (Eriksson et al, Antimicrob. Agents Chemother. 31, 600-604, 1977. Briefly, 750 ml of culture fluid harvested from HIV-1-infected PBMC were ultracentrifuged to pellet the virus. The pellet was dissolved in buffer A [50 mM Tris-HCl, pH 7.9/0.25% Nonidet P-40/5 mM dithiothreitol/20% (vol/vol) glycerol] containing 1 mM EDTA, and freeze-thawed four times. After clarification by centrifugation, the enzyme was partially purified from the supernatant by passing the extract through a DEAE-cellulose column (Whatman DE-52; 2.6×15 cm) previously equilibrated with buffer B (50 mM Tris-Cl, pH 7.9, 50 mM KCl, 1 mM EDTA, 1 mM dithiothreitol, 20% glycerol). Elution was performed using a linear gradient 50-500 mM KCl in buffer B. Fractions containing enzyme activity were dialyzed against buffer B and were further purified on a phosphocellulose column (Whatman P-11) using a linear KCl (50-500 mM) gradient in buffer B. The peak fractions were pooled and dialyzed against buffer B. The enzyme was characterized as HIV-1 reverse transcriptase based on its cation, salt, pH, and template requirements according to previous descriptions (Eriksson et al, Antimicrob. Agents Chemother. 31, 600-604, 1977). The standard reaction mixture was used to evaluate the inhibitory effect of the drugs, as previously described (Eriksson et al, Antimicrob. Agents Chemother. 31, 600-604, 1977). Briefly, the reaction mixtures (final volume 100 μl) contained 100 mM Tris-HCl, pH 8.0, 50 mM KCl, 2 mM MgCl2, 5 mM DTT, 400 ug/ml bovine serum albumin, 3 μg/ml (rA)·(dT)12-18 and 1 μM of [^3H]TTP (specific activity 82.3 Ci/mmol). The reactions were started by the addition of 10 μl of partially purified RT, incubated at 37° C. for 60 min., and processed as previously described (Eriksson et al, Antimicrob. Agents Chemother. 31, 600-604, 1977).
Median-effect method. Dose-effect relationships were analyzed by the median-effect equation (Chou et al, Adv. Enz. Regul. 22, 27-55, 1984). The slope (m) and median effective and inhibitory concentration (EC50 and IC50) values were obtained by using a computer program developed by Chou and Chou (Chou et al, Elsevier-Biosoft, Elsevier Science Publishers, Cambridge, U.K., 1985).

HSV-2 = test: Plaque reduction assay for herpes simplex viruses in Vero cells; format: cell-based, herpes simplex virus type 2; settings: Table 2; read-out: EC-50 HSV-2
Protocol: as §1

Friend, Spleen (EY-10) = test: UV/XC assay for murine retroviruses in SC-1 cells; format: cell-based, murine retrovirus; settings: Table 2; read-out: EC-50 Friend, Spleen (EY-10)
Protocol: UV/XC Assay for Murine Retroviruses Cells. Mouse embryo fibroblasts (SC-1) and XC cells were obtained from the American Type Culture Collection, Rockville, Md. The XC cell line was derived from a transplantable tumor induced in newborn White-Weston rats by the intramuscular injection of the Prague strain of Rous sarcoma virus. […] The cells were maintained in Eagle's minimum essential medium with Hanks balanced salt solution, supplemented with penicillin (100 U/ml), streptomycin (100 μg/ml), sodium bicarbonate (24 mM), Hepes (25 mM), and either 2 (maintenance) or 10 (growth) percent inactivated newborn or fetal calf serum.
Virus quantitation by UV-XC assay. The XC test (Rowe et al, Virology 42, 1136-1139, 1970) is a plaque-type of assay which tests for the presence and titer of B- and N-tropic murine leukemia viruses. Because these viruses produce no overt signs of infection of SC-1 mouse cells, it is necessary to overlay the virus producing culture with an indicator cell line, XC. The number of syncytia that are produced is a direct measure of the virus titer in FFU.
Six-well plates were seeded with 1×10^5 SC-1 mouse cells on the first day. On the following day the medium was removed and the inoculum (0.2 ml) was added in medium containing polybrene (4 μg/ml). For determining the antiviral activity of the compounds in culture, the virus dilution selected produced in untreated cultures about 80 foci per well. After 1 hour, the virus was removed and various concentrations of the drug were added. The plates were replenished with medium on the third and fifth days. The medium was removed on the eighth day and the cells exposed to UV irradiation (60 erg/mm^2 per sec) for 30 seconds. Medium containing 10^6 XC cells was then added to each plate. On the eleventh day, the plates were fixed with 10% buffered Formalin and stained with crystal violet. Comparison of the number of foci to those found in virus-infected cells receiving no drug allowed determination of whether a drug at a particular concentration was effective. Control cells without virus but receiving the drug provided an estimate of the drug's toxic effects as quantitated by using trypan blue staining.

HIV-1 (strain LAV-1) = test: microbe, parasite or virus in culture; format: cell-based
Protocol: Cells. Human peripheral blood mononuclear cells (PBMC) from healthy HIV-1 seronegative and hepatitis B virus seronegative donors were isolated by Ficoll-Hypaque discontinuous gradient centrifugation at 1,000×g for 30 minutes, washed twice in phosphate-buffered saline (pH 7.2; PBS), and pelleted at 300×g for 10 minutes. Before infection, the cells were stimulated by phytohemagglutinin (PHA) at a concentration of 6 μg/ml for three days in RPMI 1640 medium supplemented with 15% heat-inactivated fetal calf serum, 1.5 mM L-glutamine, penicillin (100 U/ml), streptomycin (100 μg/ml), and 4mM sodium bicarbonate buffer.
Viruses. HIV-1 (strain LAV-1) was obtained from Dr. P. Feorino (Centers for Disease Control, Atlanta, Ga.). The virus was propagated in human PBMC using RPMI 1640 medium, as described previously (McDougal et al, J. Immun. Meth. 76, 171-183, 1985) without PHA and supplemented with 7% v/v interleukin-2 (Advanced Biotechnologies, Silver Spring, Md.), 7 μg/ml DEAE-dextran (Pharmacia, Uppsala, Sweden), and 370 U/ml anti-human leucocyte (alpha) interferon (ICN, Lisle, Ill.). Virus obtained from cell-free culture supernatant was titrated and stored in aliquots at −80° C. until use.
Inhibition of virus replication in human PBMC. Uninfected PHA-stimulated human PBMC were uniformly distributed among 25 cm^2 flasks to give a 5 ml suspension containing about 2×10^6 cells/ml. Suitable dilutions of virus were added to infect the cultures. The mean reverse transcriptase (RT) activity of the inocula was 50,000 decompositions per min/ml corresponding to about 100 TCID50, as determined by Groopman et al. (Groopman et al, AIDS Res. Human Retro. 3, 71-85, 1987. The drugs at twice their final concentrations in 5 ml of RPMI 1640 medium, supplemented as described above, were added to the cultures. Uninfected and untreated PBMC at equivalent cell densities were grown in parallel as controls. The cultures were maintained in a humidified 5% CO2-95% air incubator at 37° C. for six days after infection, at which point all cultures were sampled for supernatant reverse transcriptase (RT) activity.
RT activity assay. Six ml supernatant from each culture was clarified from cells at 300×g for 10 minutes. Virus particles were pelleted from 5 ml samples at 40,000 rpm for 30 minutes using a Beckman 70.1 Ti rotor and suspended in 200 μl of virus disrupting buffer (50 mM Tris-Cl, pH 7.8, 800 mM NaCl, 20% glycerol, 0.5 mM phenylmethyl sulfonyl fluoride, and 0.5% Triton X-100).
The RT assay was performed in 96-well microtiter plates, as described by Spira et al. (Spira et al, J. Clin. Microbiol. 22, 97-99, 1987). The reaction mixture, which contained 50 mM Tris-Cl pH 7.8, 9 mM MgCl2, 5 mM dithiothreitol (DTT), 4.7 μg/ml (rA)n. (dT)12-18, 140 μM dATP, and 0.22 μM [^3H]TTP, specific activity 78.0 Ci/mmol, equivalent to 17,300 cpm/pmol; NEN Research Products, Boston, Mass., was added to each well. The sample (20 μl) was added to the reaction mixture which was then incubated at 37° C. for 2 hours. The reaction was terminated by the addition of 100 μl 10% trichloroacetic acid (TCA) containing 0.45 mM sodium pyrophosphate. The acid-insoluble nucleic acids which precipitated were collected on glass filters using a Skatron semi-automatic harvester. The filters were washed with 5% TCA and 70% ethanol, dried, and placed in scintillation vials. Four ml of scintillation fluid (Econofluor, NEN Research Products, Boston, Mass.) were added and the amount of radioactivity in each sample was determined using a Packard Tri-Carb liquid scintillation analyzer (model 2,000CA). The results were expressed in dpm/ml of original clarified supernatant.
Median-effect method. Dose-effect relationships were analyzed by the median-effect equation (Chou et al, Adv. Enz. Regul. 22, 27-55, 1984).

[3] = Table 2, >100 μM = Nontoxic, read-out: IC50 Toxicity PBM Cells
[4] = Table 1, read-out: IC50 Toxicity in Human PBM Cells
[5] = Table 1, read-out: EC50 Anti-HIV-1 Activity in Human PBM Cells

| Substance | IC50 (human PBM cells; [4]) [µM] | EC50 (HIV-1 (strain LAV-1); [5]) [µM] | other results |
| --- | --- | --- | --- |
| (ArgH^+)n(H^+)5-nBT, where n=1-5 [(ARGH^+)nH^+(5−n)BT] | – | – | MDD ± St. Dev. (Mean day of death) [1]: 8.8 ± 0.45; Mortality [1]: 5/5 (100); IC50 (human PBM cells; [3]): 328 µM; EC50 (HSV-1): 1.35 µM; IC50 (Vero cells): > 100 µM; EC50 [2]: 25.4 µM; EC50 (HSV-2): 3.16 µM |
| (HisH^+)p(H^+)4-pST, where p=1-4 [(HISH^+)nH^+(4−n)ST] | – | – | IC50 (human PBM cells; [3]): 182 µM; EC50 (Friend, Spleen (EY-10)): 0.92 µM; EC50 (HSV-1): 0.95 µM; IC50 (Vero cells): > 100 µM; EC50 [2]: 22.3 µM; EC50 (HSV-2): 0.87 µM |
| (NH4)5[BW12O40] [(NH4)5BT] | – | – | MDD ± St. Dev. (Mean day of death) [1]: 4.6 ± 0.89; Mortality [1]: 5/5 (100); EC50 (HSV-1): > 10 µM; EC50 (HIV-1 (strain LAV-1); Table 2, several values per cell, some in brackets, read-out: EC-50 HIV-1 (LAV-1)): 6.69 µM and 11.6 µM; IC50 (Vero cells): > 100 µM; EC50 [2]: 68.1 µM; EC50 (HSV-2): > 10 µM |
| (NH4)14[NaP5W30O110] [Formula 17] | 7.7 | 0.32 | – |
| (n-Bu4N)2Mo6O19 [Formula 16] | > 100 | > 100 | – |
| (n-Bu4N)2W6O19 [Formula 15] | > 100 | – | – |
| H6ZnW12O40 [Formula 5] | 12 | 0.9 | – |
| K4W4O10(O2)6 [Formula 21] | > 100 | > 50 | – |
| K8SiW11O39 [Formula 9] | > 100 | 0.15 | – |
| K10Co4(H2O)2(PW9O34)2 [Formula 12] | 44 | 0.8 | – |
| K10Cu4(H2O)2(PW9O34)2 [Formula 11] | > 100 | 4.4 | – |
| Na6H2W12O40 [Formula 6] | > 100 | 0.34 | – |
| Na7PW11O39 [Formula 8] | > 100 | 10.8 | – |
| Na9HSiW9O34 [Formula 10] | > 100 | 2.4 | – |
| [(DMA)2H]3PMo12O40 [Formula 7] | > 100 | > 100 | – |
| α-(n-Bu4N)4Mo8O26 [Formula 20] | > 100 | 55.3 | – |

Reference: patent US6911470B1, “Polyoxometalate compounds as antiviral agents” (priority 1988, dated 2005)
